Assay results from patent US12390437B2, “Itaconic acid derivatives and uses thereof intreating an inflammatory disease or a disease associated with an undesirable immune response” (Sitryx Therapeutics Limited, priority 2019, dated 2025).

System: hepatocytes
Assay: Hepatocyte stability assay (human)
Format: in vitro ADME
Conditions: 10 μM compound, 0.5×10^6 cells/mL, 60 minutes
Source text: (§1) Defrosted cryo-preserved hepatocytes (viability >70%) are used to determine the metabolic stability of a compound via calculation of intrinsic clearance (Clint; a measure of the removal of a compound from the liver in the absence of blood flow and cell binding). Clearance data are particularly important for in vitro work as they can be used in combination with in vivo data to predict the half-life and oral bioavailability of a drug.
(§2) The metabolic stability in hepatocytes assay involves a time-dependent reaction using both positive and negative controls. The cells must be pre-incubated at 37° C. then spiked with test compound (and positive control); samples taken at pre-determined time intervals are analysed to monitor the change in concentration of the initial drug compound over 60 minutes. A buffer incubation reaction (with no hepatocytes present) acts as a negative control and two cocktail solutions, containing compounds with known high and low clearance values (verapamil/7-hydroxycoumarin and propranolol/diltiazem), act as positive controls. • 1. The assay is run with a cell concentration of 0.5×10^6 cells/mL in Leibovitz buffer. • 2. All compounds and controls are run in duplicate. • 3. Compound concentration is 10 μM. • 4. All compounds and controls are incubated with both cells and buffer to show turnover is due to hepatic metabolism. • 5. All wells on the incubation plate will have 326.7 μL of either cells or buffer added. • 6. Prior to assay, cell and buffer-only incubation plates are preincubated for 10 mins at 37° C. • 7. The assay is initiated by adding compounds, 3.3 μL of 1 mM in 10% DMSO-90% Buffer; final DMSO concentration is 0.1%. • 8. Samples are taken at regular timepoints (0, 5, 10, 20, 40, 60 min) until 60 mins. • 9. Sample volume is 40 μL and it is added to 160 μL of crash solvent (acetonitrile with internal standard) and stored on ice. • 10. At the end of the assay, the crash plates are centrifuged at 3500 rpm for 20 mins at 4° C. • 11. 80 μL of clear supernatant is removed and mixed with 80 μL of deionised water before being analysed by LC-MS/MS.
(§3) Raw LC-MS/MS data are exported to, and analysed in, Microsoft Excel for determination of intrinsic clearance. The percentage remaining of a compound is monitored using the peak area of the initial concentration as 100%. Intrinsic clearance and half-life values are calculated using a graph of the natural log of percentage remaining versus the time of reaction in minutes. Half-life (min) and intrinsic clearance (Clint in μL min^−1 10^−6 cells) values are calculated using the gradient of the graph (the elimination rate constant, k) and Equations 1 and 2.

| CIint (μL min^−1 10^−6 cells) | SMILES |
| --- | --- |
| 55 | C=C(CC(=O)O[C@@H](C)CCCCCC)C(=O)OCCc1nnn[nH]1 [Example 129, (S)-1-(2-(1H-tetrazol-5-yl)ethyl) 4-octan-2-yl 2-methylenesuccinate] |

System: not listed separately
Assay: Hepatocyte stability assay (human)
Format: in vitro ADME
Conditions: cryopreserved hepatocytes, 10 μM compound, 0.5×10^6 cells/mL, 60 minutes, read-out: T½
Source text: as §1, §2, §3

| half-life at 10 μM [h] | SMILES |
| --- | --- |
| 1.8 | C=C(CC(=O)O[C@@H](C)CCCCCC)C(=O)OCCc1nnn[nH]1 [Example 129, (S)-1-(2-(1H-tetrazol-5-yl)ethyl) 4-octan-2-yl 2-methylenesuccinate] |

System: not listed separately
Assay: Mouse pharmacokinetic study, oral administration
Format: in vivo
Conditions: male, C57BL/6, mouse, plasma, po, 100 mg/kg, plasma, male C57BL/6 mice, oral gavage 100 mg/kg, 0.083 h; read-out: Parent compound concentrations following oral administration, Time 0.083 h
Method in brief: (§4)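 Male C57BL/6 mice (6-8 weeks, fed ad libitum) received 10 mg/kg IV by tail vein in 10% DMSO/HP-β-CD vehicle, or 100 mg/kg by oral gavage in DMSO/HPMC/Tween 80. Facial-vein blood was taken at 9 time points (N=3 each) into K2EDTA; plasma concentrations were measured by LC-MS/MS.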

| concentration at 0.083 h [ng/mL] | SMILES |
| --- | --- |
| 305 | C=C(CC(=O)O[C@@H](C)CCCCCC)C(=O)OCCc1nnn[nH]1 [Example 129, (S)-1-(2-(1H-tetrazol-5-yl)ethyl) 4-octan-2-yl 2-methylenesuccinate] |

Same assay, conditions: male, C57BL/6, mouse, plasma, po, 100 mg/kg, plasma, male C57BL/6 mice, oral gavage 100 mg/kg, 0.25 h; read-out: Parent compound concentrations following oral administration, Time 0.25 h

| concentration at 0.25 h [ng/mL] | SMILES |
| --- | --- |
| 1030 | C=C(CC(=O)O[C@@H](C)CCCCCC)C(=O)OCCc1nnn[nH]1 [Example 129, (S)-1-(2-(1H-tetrazol-5-yl)ethyl) 4-octan-2-yl 2-methylenesuccinate] |

Same assay, conditions: male, C57BL/6, mouse, plasma, po, 100 mg/kg, plasma, male C57BL/6 mice, oral gavage 100 mg/kg, 0.5 h; read-out: Parent compound concentrations following oral administration, Time 0.5 h

| concentration at 0.5 h [ng/mL] | SMILES |
| --- | --- |
| 109 | C=C(CC(=O)O[C@@H](C)CCCCCC)C(=O)OCCc1nnn[nH]1 [Example 129, (S)-1-(2-(1H-tetrazol-5-yl)ethyl) 4-octan-2-yl 2-methylenesuccinate] |

Same assay, conditions: male, C57BL/6, mouse, plasma, po, 100 mg/kg, plasma, male C57BL/6 mice, oral gavage 100 mg/kg, 1 h; read-out: Parent compound concentrations following oral administration, Time 1 h

| concentration at 1 h [ng/mL] | SMILES |
| --- | --- |
| 255 | C=C(CC(=O)O[C@@H](C)CCCCCC)C(=O)OCCc1nnn[nH]1 [Example 129, (S)-1-(2-(1H-tetrazol-5-yl)ethyl) 4-octan-2-yl 2-methylenesuccinate] |

Same assay, conditions: male, C57BL/6, mouse, plasma, po, 100 mg/kg, plasma, male C57BL/6 mice, oral gavage 100 mg/kg, 2 h; read-out: Parent compound concentrations following oral administration, Time 2 h

| concentration at 2 h [ng/mL] | SMILES |
| --- | --- |
| 61 | C=C(CC(=O)O[C@@H](C)CCCCCC)C(=O)OCCc1nnn[nH]1 [Example 129, (S)-1-(2-(1H-tetrazol-5-yl)ethyl) 4-octan-2-yl 2-methylenesuccinate] |

Same assay, conditions: male, C57BL/6, mouse, plasma, po, 100 mg/kg, plasma, male C57BL/6 mice, oral gavage 100 mg/kg, 4 h; read-out: Parent compound concentrations following oral administration, Time 4 h

| concentration at 4 h [ng/mL] | SMILES |
| --- | --- |
| 13 | C=C(CC(=O)O[C@@H](C)CCCCCC)C(=O)OCCc1nnn[nH]1 [Example 129, (S)-1-(2-(1H-tetrazol-5-yl)ethyl) 4-octan-2-yl 2-methylenesuccinate] |

Same assay, conditions: male, C57BL/6, mouse, plasma, po, 100 mg/kg, plasma, male C57BL/6 mice, oral gavage 100 mg/kg, 6 h; read-out: Parent compound concentrations following oral administration, Time 6 h

| concentration at 6 h [ng/mL] | SMILES |
| --- | --- |
| 16 | C=C(CC(=O)O[C@@H](C)CCCCCC)C(=O)OCCc1nnn[nH]1 [Example 129, (S)-1-(2-(1H-tetrazol-5-yl)ethyl) 4-octan-2-yl 2-methylenesuccinate] |

Same assay, conditions: male, C57BL/6, mouse, plasma, po, 100 mg/kg, plasma, male C57BL/6 mice, oral gavage 100 mg/kg, 8 h; read-out: Parent compound concentrations following oral administration, Time 8 h

| concentration at 8 h [ng/mL] | SMILES |
| --- | --- |
| 11 | C=C(CC(=O)O[C@@H](C)CCCCCC)C(=O)OCCc1nnn[nH]1 [Example 129, (S)-1-(2-(1H-tetrazol-5-yl)ethyl) 4-octan-2-yl 2-methylenesuccinate] |

Same assay, conditions: male, C57BL/6, mouse, plasma, po, 100 mg/kg, plasma, male C57BL/6 mice, oral gavage 100 mg/kg, 24 h; read-out: Parent compound concentrations following oral administration, Time 24 h

| concentration at 24 h [ng/mL] | SMILES |
| --- | --- |
| 3.5 | C=C(CC(=O)O[C@@H](C)CCCCCC)C(=O)OCCc1nnn[nH]1 [Example 129, (S)-1-(2-(1H-tetrazol-5-yl)ethyl) 4-octan-2-yl 2-methylenesuccinate] |

System: not listed separately
Assay: Mouse pharmacokinetic study, intravenous dosing
Format: in vivo
Conditions: male, C57BL/6, mouse, iv; plasma, 10 mg/kg i.v., time 0.05 h; read-out: Parent compound concentration following intravenous administration
Method in brief: as §4

| concentration at 0.05 h [ng/mL] | SMILES |
| --- | --- |
| 2920 | C=C(CC(=O)O[C@@H](C)CCCCCC)C(=O)OCCc1nnn[nH]1 [Example 129, (S)-1-(2-(1H-tetrazol-5-yl)ethyl) 4-octan-2-yl 2-methylenesuccinate] |

Same assay, conditions: male, C57BL/6, mouse, iv; plasma, 10 mg/kg i.v., time 0.133 h; read-out: Parent compound concentration following intravenous administration

| concentration at 0.133 h [ng/mL] | SMILES |
| --- | --- |
| 872 | C=C(CC(=O)O[C@@H](C)CCCCCC)C(=O)OCCc1nnn[nH]1 [Example 129, (S)-1-(2-(1H-tetrazol-5-yl)ethyl) 4-octan-2-yl 2-methylenesuccinate] |

Same assay, conditions: male, C57BL/6, mouse, iv; plasma, 10 mg/kg i.v., time 0.25 h; read-out: Parent compound concentration following intravenous administration

| concentration at 0.25 h [ng/mL] | SMILES |
| --- | --- |
| 309 | C=C(CC(=O)O[C@@H](C)CCCCCC)C(=O)OCCc1nnn[nH]1 [Example 129, (S)-1-(2-(1H-tetrazol-5-yl)ethyl) 4-octan-2-yl 2-methylenesuccinate] |

Same assay, conditions: male, C57BL/6, mouse, iv; plasma, 10 mg/kg i.v., time 0.5 h; read-out: Parent compound concentration following intravenous administration

| concentration at 0.5 h [ng/mL] | SMILES |
| --- | --- |
| 96 | C=C(CC(=O)O[C@@H](C)CCCCCC)C(=O)OCCc1nnn[nH]1 [Example 129, (S)-1-(2-(1H-tetrazol-5-yl)ethyl) 4-octan-2-yl 2-methylenesuccinate] |

Same assay, conditions: male, C57BL/6, mouse, iv; plasma, 10 mg/kg i.v., time 1 h; read-out: Parent compound concentration following intravenous administration

| concentration at 1 h [ng/mL] | SMILES |
| --- | --- |
| 7.7 | C=C(CC(=O)O[C@@H](C)CCCCCC)C(=O)OCCc1nnn[nH]1 [Example 129, (S)-1-(2-(1H-tetrazol-5-yl)ethyl) 4-octan-2-yl 2-methylenesuccinate] |

Same assay, conditions: male, C57BL/6, mouse, iv; plasma, 10 mg/kg i.v., time 2 h; read-out: Parent compound concentration following intravenous administration

| concentration at 2 h [ng/mL] | SMILES |
| --- | --- |
| < 1.6 | C=C(CC(=O)O[C@@H](C)CCCCCC)C(=O)OCCc1nnn[nH]1 [Example 129, (S)-1-(2-(1H-tetrazol-5-yl)ethyl) 4-octan-2-yl 2-methylenesuccinate] |

Same assay, conditions: male, C57BL/6, mouse, iv; plasma, 10 mg/kg i.v., time 4 h; read-out: Parent compound concentration following intravenous administration

| concentration at 4 h [ng/mL] | SMILES |
| --- | --- |
| < 1.6 | C=C(CC(=O)O[C@@H](C)CCCCCC)C(=O)OCCc1nnn[nH]1 [Example 129, (S)-1-(2-(1H-tetrazol-5-yl)ethyl) 4-octan-2-yl 2-methylenesuccinate] |

Same assay, conditions: male, C57BL/6, mouse, iv; plasma, 10 mg/kg i.v., time 6 h; read-out: Parent compound concentration following intravenous administration

| concentration at 6 h [ng/mL] | SMILES |
| --- | --- |
| < 1.6 | C=C(CC(=O)O[C@@H](C)CCCCCC)C(=O)OCCc1nnn[nH]1 [Example 129, (S)-1-(2-(1H-tetrazol-5-yl)ethyl) 4-octan-2-yl 2-methylenesuccinate] |

Same assay, conditions: male, C57BL/6, mouse, iv; plasma, 10 mg/kg i.v., time 8 h; read-out: Parent compound concentration following intravenous administration

| concentration at 8 h [ng/mL] | SMILES |
| --- | --- |
| < 1.6 | C=C(CC(=O)O[C@@H](C)CCCCCC)C(=O)OCCc1nnn[nH]1 [Example 129, (S)-1-(2-(1H-tetrazol-5-yl)ethyl) 4-octan-2-yl 2-methylenesuccinate] |
